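Cultured in 96-well plates, cells were exposed to test compound for 48 hours across five concentrations. GI50 is the concentration that inhibits growth by half.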 The source made the active and inactive calls. No stated cut-off is given here; in the data, active = GI50 up to about 1.1 µM and inactive = higher.
Tests used:
Assay in all cases: NCI-60 cell line screen, 48 h
MCF7 = system: MCF7
RPMI-8226 = system: RPMI-8226
HCC 2998 = system: HCC 2998
MOLT-4 = system: MOLT-4
HOP-62 = system: HOP-62
T47D = system: T47D
K562 = system: K562
MDA-MB-435 = system: MDA-MB-435
OVCAR-3 = system: OVCAR-3
U-251 = system: U-251
HL-60 = system: HL-60
PC-3 = system: PC-3
SF-539 = system: SF-539
SF-268 = system: SF-268
HOP-92 = system: HOP-92
EKVX = system: EKVX
NCI-H460 = system: NCI-H460
NCI-H522 = system: NCI-H522
LOX IMVI = system: LOX IMVI
SK-OV-3 = system: SK-OV-3

Row | SMILES | GI50 (MCF7) | GI50 (RPMI-8226) | GI50 (HCC 2998) | GI50 (MOLT-4) | GI50 (HOP-62) | GI50 (T47D) | GI50 (K562) | GI50 (MDA-MB-435) | GI50 (OVCAR-3) | GI50 (U-251) | GI50 (HL-60) | GI50 (PC-3) | GI50 (SF-539) | GI50 (SF-268) | GI50 (HOP-92) | GI50 (EKVX) | GI50 (NCI-H460) | GI50 (NCI-H522) | GI50 (LOX IMVI) | GI50 (SK-OV-3)
1 | O=[N+]([O-])C1CC/C(=N/O)c2nonc21 (stereo not given) | > 10 µM (inactive) | > 10 µM (inactive) | > 10 µM (inactive) | > 10 µM (inactive) | > 10 µM (inactive) | > 10 µM (inactive) | > 10 µM (inactive) | > 10 µM (inactive) | > 10 µM (inactive) | > 10 µM (inactive) | > 10 µM (inactive) | > 10 µM (inactive) | > 10 µM (inactive) | > 10 µM (inactive) | > 10 µM (inactive) | > 10 µM (inactive) | > 10 µM (inactive) | – | – | –
2 | CCCC1c2c(ccc3ccccc23)Oc2ccc3ccccc3c21 | 15.5 µM (inactive) | 45.2 µM (inactive) | – | 37.6 µM (inactive) | > 100 µM (inactive) | 14.6 µM (inactive) | – | 41.4 µM (inactive) | 61.4 µM (inactive) | 40.2 µM (inactive) | – | 64.4 µM (inactive) | > 100 µM (inactive) | 79.8 µM (inactive) | > 100 µM (inactive) | 33.5 µM (inactive) | 88.3 µM (inactive) | 25.5 µM (inactive) | 32.5 µM (inactive) | > 100 µM (inactive)
3 | CCOC(=O)C1=C(Nc2cccc(OC)c2)OCC1=O | > 100 µM (inactive) | > 100 µM (inactive) | > 100 µM (inactive) | > 100 µM (inactive) | > 100 µM (inactive) | > 100 µM (inactive) | > 100 µM (inactive) | > 100 µM (inactive) | – | > 100 µM (inactive) | > 100 µM (inactive) | > 100 µM (inactive) | > 100 µM (inactive) | > 100 µM (inactive) | > 100 µM (inactive) | > 100 µM (inactive) | > 100 µM (inactive) | – | > 100 µM (inactive) | > 100 µM (inactive)
4 | c1ccc(C2SCC3=Nc4ccccc4CN32)cc1 (stereo not given) | 26.9 µM (inactive) | 39.8 µM (inactive) | 61.7 µM (inactive) | 34.7 µM (inactive) | 26.1 µM (inactive) | 25.8 µM (inactive) | 33.5 µM (inactive) | 29.7 µM (inactive) | 0.78 µM (active) | 63 µM (inactive) | 23.6 µM (inactive) | 25.9 µM (inactive) | 28.4 µM (inactive) | 78.5 µM (inactive) | 50.8 µM (inactive) | – | 54 µM (inactive) | – | 36 µM (inactive) | 23.4 µM (inactive)
